Experimental data taken from US20240262819A1, “NOVEL COMPOUNDS HAVING INHIBITORY ACTIVITY AGAINST GLUCOSYLCERAMIDE SYNTHASE OR PHARMACEUTICALLY ACCEPTABLE SALT THEREOF, PROCESSES FOR PREPARING THE SAME, AND PHARMACEUTICAL COMPOSITIONS COMPRISING THE SAME” (YUHAN CORPORATION, priority 2021, published 2024).
Like-named read-outs stand apart in the source and are kept apart here.

Assays:
[1] = test system: GM1 production in Jurkat cells; assay: cells; format: cell-based
[2] = Evaluation of blood-brain barrier (BBB) permeability through oral administration; format: in vivo, mice; conditions: mouse, in vivo, mice, oral, dose 30 mg/kg, 4 hr; for Kp at 4 h: read-out: Mean brain-plasma drug ratio at 4 hr
Experimental: The blood-brain barrier (BBB) permeability was evaluated in mice, with respect to the compounds according to the present invention and the control (ibiglustat). Each compound of the present invention and the control were suspended in 0.5% methyl cellulose containing 0.2% Tween 80 and then orally administered to mice at a dose of 10 or 30 mg/10 ml/kg. After the whole blood was collected from the heart of each mouse at the time of 4 hours after the administration, it was placed in a lithium heparin tube and immediately centrifuged to obtain the plasma. After the exsanguination was carried out through abdominal vena cava incision, the forebrain was taken by dissection of the head. Both of the forebrain and the plasma were stored in a −80° C. freezer until the analysis of drug concentrations therein. For the analysis of drug concentrations therein, the forebrain was immersed in distilled water and then homogenized with a homogenizer to obtain a homogenate. Each plasma and homogenate was treated with acetonitrile to precipitate proteins, vortexed for 15 seconds, and then centrifuged (12700 rpm, 10 min, 4° C.). The obtained supernatant was diluted with an 80% aqueous solution of acetonitrile containing 0.1% formic acid and then analyzed with an LC-MS/MS instrument. LC-MS/MS analysis was carried out with a reversed-phase column, using distilled water containing 0.1% formic acid and acetonitrile as mobile phases. Each eluted material was detected through a mass spectrometer to calculate the drug concentrations thereof. The brain-plasma drug ratio (B/P ratio) was calculated from the drug concentrations in each tissue to evaluate the blood-brain barrier (BBB) permeability.

[3] = target: glucosylceramide synthase (GCS) (Homo sapiens (Human), UniProt Q16739); assay: Evaluation of inhibitory activities against GCS (A549 cell lysate, NBD C6-ceramide, HPLC); format: biochemical
Chain of glucosylceramide synthase (GCS) (Q16739 whole entry): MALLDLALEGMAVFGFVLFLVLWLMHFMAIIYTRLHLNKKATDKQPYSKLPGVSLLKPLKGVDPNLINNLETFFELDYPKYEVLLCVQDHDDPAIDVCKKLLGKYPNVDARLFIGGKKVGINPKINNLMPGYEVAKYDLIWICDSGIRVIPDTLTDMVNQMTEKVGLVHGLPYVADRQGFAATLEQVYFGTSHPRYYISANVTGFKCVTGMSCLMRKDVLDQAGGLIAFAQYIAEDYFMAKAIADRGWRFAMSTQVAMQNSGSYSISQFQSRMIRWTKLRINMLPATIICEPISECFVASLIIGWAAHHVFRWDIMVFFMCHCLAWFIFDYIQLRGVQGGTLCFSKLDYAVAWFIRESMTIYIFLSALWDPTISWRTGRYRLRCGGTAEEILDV
Method in brief: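 GCS activity in A549 cell lysate (50 mM HEPES, pH 7.3) with NBD C6-ceramide, reacted 90 min at 37 °C. Lipids were chloroform/methanol-extracted and separated by normal-phase HPLC with fluorescence detection (ex 470/em 530 nm). GlcCer fraction of peak area was normalized between DMSO and ibiglustat, and IC50 obtained by curve fitting.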

[4] = read-out: Mean drug concentrations in brain tissue at 4 hr
[5] = read-out: Mean drug concentrations in plasma at 4 hr
[6] = % GCS activity, A549 cell lysate, 37° C. for 90 minutes, read-out: IC50

Molecule: COc1ccc(-c2ccc3c(c2)CC(C)(C)[C@H]3NC(=O)O[C@@H]2CN3CCC2CC3)cc1F [Example 18, (S)-quinuclidin-3-yl((R)-5-(3-fluoro-4-methoxyphenyl)-2,2-dimethyl-2,3-dihydro-1H-inden-1-yl)carbamate]
- IC50 ([1]; Homo sapiens, Jurkat, 72 h): 50.7 nM
- Kp at 4 h [2]: 3.47
- concentration at 4 h [2, 4]: 3950 ng/g
- concentration at 4 h [2, 5]: 1130 ng/mL
- IC50 [3]: 3.19 nM

Molecule: CC(C)Oc1ccc(-c2ccc3c(c2)CC(C)(C)[C@H]3NC(=O)O[C@@H]2CN3CCC2CC3)c(Cl)c1 [Example 32, (S)-quinuclidin-3-yl((R)-5-(2-chloro-4-isopropoxyphenyl)-2,2-dimethyl-2,3-dihydro-1H-inden-1-yl)carbamate]
- IC50 ([1]; Homo sapiens, Jurkat, 72 h): 4.23 nM
- Kp at 4 h [2]: 4.23
- concentration at 4 h [2, 4]: 5650 ng/g
- concentration at 4 h [2, 5]: 1340 ng/mL
- IC50 [3]: 0.192 nM

Molecule: Cc1cc(-c2ccc3c(c2)CC(C)(C)[C@H]3NC(=O)O[C@@H]2CN3CCC2CC3)ccc1OC(C)C [Example 34, (S)-quinuclidin-3-yl((R)-5-(4-isopropoxy-3-methylphenyl)-2,2-dimethyl-2,3-dihydro-1H-inden-1-yl)carbamate]
- IC50 ([1]; Homo sapiens, Jurkat, 72 h): 2.3 nM
- Kp at 4 h [2]: 14
- concentration at 4 h [2, 4]: 10700 ng/g
- concentration at 4 h [2, 5]: 767 ng/mL
- IC50 [3]: 1.31 nM

Molecule: COc1cc(-c2ccc3c(c2)CC(C)(C)[C@H]3NC(=O)O[C@@H]2CN3CCC2CC3)ccc1OC(C)C [Example 35, (S)-quinuclidin-3-yl((R)-5-(4-isopropoxy-3-methoxyphenyl)-2,2-dimethyl-2,3-dihydro-1H-inden-1-yl)carbamate]
- IC50 ([1]; Homo sapiens, Jurkat, 72 h): 3.3 nM
- Kp at 4 h [2]: 1.85
- concentration at 4 h [2, 4]: 2010 ng/g
- concentration at 4 h [2, 5]: 1080 ng/mL
- IC50 [3]: 2.22 nM

Molecule: Cc1cc(OC(C)C)ccc1-c1ccc2c(c1)CC(C)(C)[C@H]2NC(=O)O[C@@H]1CN2CCC1CC2 [Example 36, (S)-quinuclidin-3-yl((R)-5-(4-isopropoxy-2-methylphenyl)-2,2-dimethyl-2,3-dihydro-1H-inden-1-yl)carbamate]
- IC50 ([1]; Homo sapiens, Jurkat, 72 h): 0.7 nM
- Kp at 4 h [2]: 3.65
- concentration at 4 h [2, 4]: 6650 ng/g
- concentration at 4 h [2, 5]: 1830 ng/mL
- IC50 [3]: 0.13 nM

Molecule: CC1(C)Cc2cc(-c3ccc(OCC4CC4)cc3Cl)ccc2[C@@H]1NC(=O)O[C@@H]1CN2CCC1CC2 [Example 38, (S)-quinuclidin-3-yl((R)-5-(2-chloro-4-(cyclopropylmethoxy)phenyl)-2,2-dimethyl-2,3-dihydro-1H-inden-1-yl)carbamate]
- IC50 ([1]; Homo sapiens, Jurkat, 72 h): 3.2 nM
- Kp at 4 h [2]: 5.6
- concentration at 4 h [2, 4]: 3640 ng/g
- concentration at 4 h [2, 5]: 670 ng/mL
- IC50 [3]: 0.05 nM

Molecule: CC1(C)Cc2cc(-c3ccc(OCC4CC4)c(Cl)c3)ccc2[C@@H]1NC(=O)O[C@@H]1CN2CCC1CC2 [Example 39, (S)-quinuclidin-3-yl((R)-5-(3-chloro-4-(cyclopropylmethoxy)phenyl)-2,2-dimethyl-2,3-dihydro-1H-inden-1-yl)carbamate]
- IC50 ([1]; Homo sapiens, Jurkat, 72 h): 1.1 nM
- Kp at 4 h [2]: 9.85
- concentration at 4 h [2, 4]: 5510 ng/g
- concentration at 4 h [2, 5]: 564 ng/mL
- IC50 [3]: 1.03 nM

Molecule: CCOc1ccc(-c2ccc3c(c2)CC(C)(C)[C@H]3NC(=O)O[C@@H]2CN3CCC2CC3)c(Cl)c1 [Example 44, (S)-quinuclidin-3-yl((R)-5-(2-chloro-4-ethoxyphenyl)-2,2-dimethyl-2,3-dihydro-1H-inden-1-yl)carbamate]
- IC50 ([1]; Homo sapiens, Jurkat, 72 h): 2.3 nM
- Kp at 4 h [2]: 4.79
- concentration at 4 h [2, 4]: 8860 ng/g
- concentration at 4 h [2, 5]: 1850 ng/mL
- IC50 [3]: 0.17 nM

Molecule: CCCOc1c(C)cc(-c2cc3c(cc2F)[C@H](NC(=O)O[C@@H]2CN4CCC2CC4)C(C)(C)C3)cc1C [Example 64, (S)-quinuclidin-3-yl((R)-5-(3,5-dimethyl-4-propoxyphenyl)-6-fluoro-2,2-dimethyl-2,3-dihydro-1H-inden-1-yl)carbamate]
- IC50 ([1]; Homo sapiens, Jurkat, 72 h): 11.6 nM
- Kp at 4 h [2]: 4.43
- concentration at 4 h [2, 4]: 1040 ng/g
- concentration at 4 h [2, 5]: 234 ng/mL
- IC50 [3]: 3.92 nM

Molecule: CC(C)Oc1ccc(-c2cc3c(cc2F)[C@H](NC(=O)O[C@@H]2CN4CCC2CC4)C(C)(C)C3)cc1F [Example 83, (S)-quinuclidin-3-yl((R)-6-fluoro-5-(3-fluoro-4-isopropoxyphenyl)-2,2-dimethyl-2,3-dihydro-1H-inden-1-yl)carbamate]
- IC50 ([1]; Homo sapiens, Jurkat, 72 h): 10.4 nM
- Kp at 4 h [2]: 6.29
- concentration at 4 h [2, 4]: 7370 ng/g
- concentration at 4 h [2, 5]: 1170 ng/mL
- IC50 [3]: 0.58 nM

Molecule: Cc1ccc(-c2cc3c(cc2F)[C@H](NC(=O)O[C@@H]2CN4CCC2CC4)C(C)(C)C3)cc1Cl [Example 84, (S)-quinuclidin-3-yl((R)-5-(3-chloro-4-methylphenyl)-6-fluoro-2,2-dimethyl-2,3-dihydro-1H-inden-1-yl)carbamate]
- IC50 ([1]; Homo sapiens, Jurkat, 72 h): 17.2 nM
- Kp at 4 h [2]: 7.23
- concentration at 4 h [2, 4]: 4940 ng/g
- concentration at 4 h [2, 5]: 683 ng/mL
- IC50 [3]: 0.29 nM

Molecule: CCOc1ccc(-c2cc3c(cc2F)[C@H](NC(=O)O[C@@H]2CN4CCC2CC4)C(C)(C)C3)cc1Cl [Example 86, (S)-quinuclidin-3-yl((R)-5-(3-chloro-4-ethoxyphenyl)-6-fluoro-2,2-dimethyl-2,3-dihydro-1H-inden-1-yl)carbamate]
- IC50 ([1]; Homo sapiens, Jurkat, 72 h): 45.8 nM
- Kp at 4 h [2]: 5.65
- concentration at 4 h [2, 4]: 4790 ng/g
- concentration at 4 h [2, 5]: 852 ng/mL
- IC50 [3]: 0.756 nM

Molecule: CCCOc1ccc(-c2cc3c(cc2F)[C@H](NC(=O)O[C@@H]2CN4CCC2CC4)C(C)(C)C3)cc1Cl [Example 87, (S)-quinuclidin-3-yl((R)-5-(3-chloro-4-propoxyphenyl)-6-fluoro-2,2-dimethyl-2,3-dihydro-1H-inden-1-yl)carbamate]
- IC50 ([1]; Homo sapiens, Jurkat, 72 h): 36.2 nM
- Kp at 4 h [2]: 8.57
- concentration at 4 h [2, 4]: 972 ng/g
- concentration at 4 h [2, 5]: 114 ng/mL
- IC50 [3]: 0.77 nM

Molecule: COc1ccc(-c2cc3c(cc2F)[C@H](NC(=O)O[C@@H]2CN4CCC2CC4)C(C)(C)C3)cc1F [Example 89, (S)-quinuclidin-3-yl((R)-6-fluoro-5-(3-fluoro-4-methoxyphenyl)-2,2-dimethyl-2,3-dihydro-1H-inden-1-yl)carbamate]
- IC50 ([1]; Homo sapiens, Jurkat, 72 h): 43.5 nM
- Kp at 4 h [2]: 5.42
- concentration at 4 h [2, 4]: 4040 ng/g
- concentration at 4 h [2, 5]: 751 ng/mL
- IC50 [3]: 0.621 nM

Molecule: CC(C)Oc1cccc(-c2cc3c(cc2F)[C@H](NC(=O)O[C@@H]2CN4CCC2CC4)C(C)(C)CC3)c1 [Example 196, (S)-quinuclidin-3-yl((R)-7-fluoro-6-(3-isopropoxyphenyl)-2,2-dimethyl-1,2,3,4-tetrahydronaphthalen-1-yl)carbamate]
- IC50 ([1]; Homo sapiens, Jurkat, 72 h): 6 nM
- IC50 [3]: 0.43 nM

Molecule: (S)-quinuclidin-3-yl((R)-2,2-dimethyl-6-(3-propylphenyl)-1,2,3,4-tetrahydronaphthalen-1-yl) carbamate [Example 156]
- IC50 ([1]; read-out: IC50): 1.9 nM
- IC50 [3, 6]: 0.62 nM

Molecule: (S)-quinuclidin-3-yl((R)-7-fluoro-6-(4-isopropylphenyl)-2,2-dimethyl-1,2,3,4-tetrahydronaphthalen-1-yl) carbamate [Example 172]
- IC50 ([1]; read-out: IC50): 0.86 nM
- IC50 [3, 6]: 0.33 nM

Molecule: (S)-quinuclidin-3-yl((R)-7-fluoro-6-(4-methoxyphenyl)-2,2-dimethyl-1,2,3,4-tetrahydronaphthalen-1-yl) carbamate [Example 175]
- IC50 ([1]; read-out: IC50): 3.8 nM
- IC50 [3, 6]: 0.28 nM
